# Data from patent US20250034169A1, “NOVEL PYRIMIDOPYRIDINE COMPOUND, PHARMACEUTICAL COMPOSITION THEREOF, AND USE THEREOF” (SUNSHINE LAKE PHARMA CO., LTD., priority 2021, published 2025).
# Target: KRAS G12D-GTP & cRAF (Homo sapiens (Human), UniProt P01116, G12D)
# Assay: KRAS G12D/cRAF binding experiment (HTRF)
# Details: competitive binding
# KRAS G12D-GTP & cRAF, sequence (P01116-2 other isoform, or with tags, fused parts or gaps G12D): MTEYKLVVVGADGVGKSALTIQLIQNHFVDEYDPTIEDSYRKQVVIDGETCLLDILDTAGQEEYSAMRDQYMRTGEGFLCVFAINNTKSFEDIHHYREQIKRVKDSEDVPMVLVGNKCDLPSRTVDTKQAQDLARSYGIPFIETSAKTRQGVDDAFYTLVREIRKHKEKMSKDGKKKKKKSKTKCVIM
row,SMILES,IC50
1,C#Cc1c(F)ccc2cc(O)cc(-c3nc(C#C)c4c(N5CC6CCC(C5)N6)nc(OC[C@H]5CCCN5C)nc4c3F)c12 [Compound 50],19.1 nM
2,C#Cc1c(F)ccc2cc(O)cc(-c3nc(C#C)c4c(N5CC6CCC(C5)N6)nc(OC[C@@H]5CCCN5C)nc4c3F)c12 [Compound 51],11.1 nM
3,C#Cc1c(F)ccc2cc(O)cc(-c3nc(C#C)c4c(N5CC6CCC(C5)N6)nc(OCC5(CN(C)C)CC5)nc4c3F)c12 [Compound 52],7.7 nM
4,C#Cc1c(F)ccc2cc(O)cc(-c3nc(C#C)c4c(N5CC6CCC(C5)N6)nc(OCC5(CN6CCOCC6)CC5)nc4c3F)c12 [Compound 53],4.3 nM
5,C#Cc1c(F)ccc2cc(O)cc(-c3nc(C#C)c4c(N5CC6CCC(C5)N6)nc(OCCC(F)(F)F)nc4c3F)c12 [Compound 55],9.8 nM
6,C#Cc1c(F)ccc2cc(O)cc(-c3nc(C#C)c4c(N5CC6CCC(C5)N6)nc(OCC5CCCC5)nc4c3F)c12 [Compound 56],18.5 nM
7,C#Cc1nc(-c2cc(O)cc3ccc(F)c(CC)c23)c(F)c2nc(OC[C@@]34CCCN3C[C@H](F)C4)nc(N3CC4CCC(C3)N4)c12 [Compound 65],9.9 nM
8,C#Cc1nc(-c2cc(O)cc3ccccc23)c(F)c2nc(OC[C@@]34CCCN3C[C@H](F)C4)nc(N3CC4CCC(C3)N4)c12 [Compound 66],5.9 nM
9,C#Cc1nc(-c2cc(O)cc3cccc(F)c23)c(F)c2nc(OC[C@@]34CCCN3C[C@H](F)C4)nc(N3CC4CCC(C3)N4)c12 [Compound 68],6.5 nM
10,C#Cc1nc(-c2cc(O)cc(Cl)c2C2CC2)c(F)c2nc(OC[C@@]34CCCN3C[C@H](F)C4)nc(N3CC4CCC(C3)N4)c12 [Compound 78],7.5 nM
11,C#Cc1c(F)ccc2cccc(-c3nc(C#C)c4c(N5CC6CCC(C5)N6)nc(OC[C@@]56CCCN5C[C@H](F)C6)nc4c3F)c12 [Compound 84],20.8 nM

# Target: KRAS G12D-GTP & SOS1 (Homo sapiens (Human), UniProt P01116, G12D)
# Assay: KRAS G12D/SOS1 binding experiment (HTRF)
# Details: competitive binding
# KRAS G12D-GTP & SOS1, sequence (P01116-2 other isoform, or with tags, fused parts or gaps G12D): as above
row,SMILES,IC50
1,C#Cc1c(F)ccc2cc(O)cc(-c3nc(C#C)c4c(N5CC6CCC(C5)N6)nc(OC[C@H]5CCCN5C)nc4c3F)c12 [Compound 50],36.2 nM
2,C#Cc1c(F)ccc2cc(O)cc(-c3nc(C#C)c4c(N5CC6CCC(C5)N6)nc(OC[C@@H]5CCCN5C)nc4c3F)c12 [Compound 51],20.8 nM
3,C#Cc1c(F)ccc2cc(O)cc(-c3nc(C#C)c4c(N5CC6CCC(C5)N6)nc(OCC5(CN(C)C)CC5)nc4c3F)c12 [Compound 52],15.2 nM
4,C#Cc1c(F)ccc2cc(O)cc(-c3nc(C#C)c4c(N5CC6CCC(C5)N6)nc(OCC5(CN6CCOCC6)CC5)nc4c3F)c12 [Compound 53],14.6 nM
5,C#Cc1c(F)ccc2cc(O)cc(-c3nc(C#C)c4c(N5CC6CCC(C5)N6)nc(OCCC(F)(F)F)nc4c3F)c12 [Compound 55],14.8 nM
6,C#Cc1c(F)ccc2cc(O)cc(-c3nc(C#C)c4c(N5CC6CCC(C5)N6)nc(OCC5CCCC5)nc4c3F)c12 [Compound 56],15.7 nM
7,C#Cc1nc(-c2cc(O)cc3ccc(F)c(CC)c23)c(F)c2nc(OC[C@@]34CCCN3C[C@H](F)C4)nc(N3CC4CCC(C3)N4)c12 [Compound 65],18.5 nM
8,C#Cc1nc(-c2cc(O)cc3ccccc23)c(F)c2nc(OC[C@@]34CCCN3C[C@H](F)C4)nc(N3CC4CCC(C3)N4)c12 [Compound 66],11.7 nM
9,C#Cc1nc(-c2cc(O)cc3cccc(F)c23)c(F)c2nc(OC[C@@]34CCCN3C[C@H](F)C4)nc(N3CC4CCC(C3)N4)c12 [Compound 68],16.6 nM
10,C#Cc1nc(-c2cc(O)cc(Cl)c2C2CC2)c(F)c2nc(OC[C@@]34CCCN3C[C@H](F)C4)nc(N3CC4CCC(C3)N4)c12 [Compound 78],17.3 nM
11,C#Cc1c(F)ccc2cccc(-c3nc(C#C)c4c(N5CC6CCC(C5)N6)nc(OC[C@@]56CCCN5C[C@H](F)C6)nc4c3F)c12 [Compound 84],29.6 nM

# System: intracellular pERK
# Assay: Inhibitory effect on intracellular pERK, In-Cell Western, AGS cells
# Format: cell-based
# Details: Homo sapiens, AGS, 3 h, read-out: Inhibitory effect on intracellular pERK, IC50
row,SMILES,IC50
1,C#Cc1nc(-c2cc(O)cc3ccc(F)c(CC)c23)c(F)c2nc(OC[C@@]34CCCN3C[C@H](F)C4)nc(N3CC4CCC(C3)N4)c12 [Compound 65],0.4 nM

# Same assay, conditions: Homo sapiens; AGS cells, 3 h incubation, In-Cell Western; read-out: Inhibitory effect on intracellular pERK, IC50
row,SMILES,IC50
1,C#Cc1c(F)ccc2cc(O)cc(-c3nc(COC)c4c(N5CC6CCC(C5)N6)nc(OC[C@@]56CCCN5C[C@H](F)C6)nc4c3F)c12 [Compound 26],0.4 nM
2,C#Cc1c(F)ccc2cc(O)cc(-c3nc(C#CCCCC)c4c(N5CC6CCC(C5)N6)nc(OC[C@@]56CCCN5C[C@H](F)C6)nc4c3F)c12 [Compound 39],0.5 nM
3,C#Cc1c(F)ccc2cc(O)cc(-c3nc(C#C)c4c(N5CC6CCC(C5)N6)nc(OC[C@@H]5CCCN5C)nc4c3F)c12 [Compound 51],1.2 nM
4,C#Cc1c(F)ccc2cc(O)cc(-c3nc(C#C)c4c(N5CC6CCC(C5)N6)nc(OCC5(CN(C)C)CC5)nc4c3F)c12 [Compound 52],1.5 nM
5,C#Cc1c(F)ccc2cc(O)cc(-c3nc(C#C)c4c(N5CC6CCC(C5)N6)nc(OCC5(CN6CCOCC6)CC5)nc4c3F)c12 [Compound 53],0.4 nM
6,C#Cc1nc(-c2cc(O)cc3cccc(F)c23)c(F)c2nc(OC[C@@]34CCCN3C[C@H](F)C4)nc(N3CC4CCC(C3)N4)c12 [Compound 68],0.8 nM
7,C#CCOc1nc(-c2cc(O)cc3ccc(F)c(C#C)c23)c(F)c2nc(OC[C@@]34CCCN3C[C@H](F)C4)nc(N3CC4CCC(C3)N4)c12 [Compound 91],0.3 nM

# System: not listed separately
# Assay: Stability in human liver microsomes
# Format: in vitro ADME
# Details: human, 1 μM, pH 7.4
# Procedure: (§1) Objective: To evaluate the stability of the compounds of the present invention in human and mouse liver microsomes by LC-MS/MS.
# (§2) The ratio of the sample peak area to the internal standard peak area was obtained by LC/MS/MS, and the content of the compounds at 0 min was regarded as 100%, and the relative content of the compounds at each time point was calculated. The half-life of the compound was calculated by plotting the “relative content of the compound” against the “incubation time”, and the intrinsic clearance was calculated, in which the half-life and intrinsic clearance of the compound in human and mouse liver microsomes were determined in Table 3 and Table 4, respectively.
SMILES,CLHep,ER
C#Cc1c(F)ccc2cc(O)cc(-c3nc(C#CCCCC)c4c(N5CC6CCC(C5)N6)nc(OC[C@@]56CCCN5C[C@H](F)C6)nc4c3F)c12 [Compound 39],19.0 mL/min/kg,0.48
C#Cc1c(F)ccc2cc(O)cc(-c3nc(C#C)c4c(N5CC6CCC(C5)N6)nc(OCC56CCCN5CCC6)nc4c3F)c12 [Compound 54],5.6 mL/min/kg,0.21

# Same assay, conditions: human, microsomes, pH 7.4
SMILES,half-life at 1 μM,microsomal CLint at 1 μM
C#Cc1c(F)ccc2cc(O)cc(-c3nc(C#CCCCC)c4c(N5CC6CCC(C5)N6)nc(OC[C@@]56CCCN5C[C@H](F)C6)nc4c3F)c12 [Compound 39],1.52 h,15.2 µL/min/mg
C#Cc1c(F)ccc2cc(O)cc(-c3nc(C#C)c4c(N5CC6CCC(C5)N6)nc(OCC56CCCN5CCC6)nc4c3F)c12 [Compound 54],5.2 h,4.4 µL/min/mg

# System: not listed separately
# Assay: Stability in mouse liver microsomes
# Format: in vitro ADME
# Details: mouse, 1 μM, pH 7.4
# Procedure: as §1, §2
SMILES,CLHep,CLin vivo,ER
C#Cc1c(F)ccc2cc(O)cc(-c3nc(C#CCCCC)c4c(N5CC6CCC(C5)N6)nc(OC[C@@]56CCCN5C[C@H](F)C6)nc4c3F)c12 [Compound 39],53.4 mL/min/kg,33.5 mL/min/kg,0.37
C#Cc1c(F)ccc2cc(O)cc(-c3nc(C#C)c4c(N5CC6CCC(C5)N6)nc(OCC56CCCN5CCC6)nc4c3F)c12 [Compound 54],31.9 mL/min/kg,23.5 mL/min/kg,0.26

# Same assay, conditions: mouse, microsomes, pH 7.4
SMILES,half-life at 1 μM,microsomal CLint at 1 μM
C#Cc1c(F)ccc2cc(O)cc(-c3nc(C#CCCCC)c4c(N5CC6CCC(C5)N6)nc(OC[C@@]56CCCN5C[C@H](F)C6)nc4c3F)c12 [Compound 39],1.7 h,13.5 µL/min/mg
C#Cc1c(F)ccc2cc(O)cc(-c3nc(C#C)c4c(N5CC6CCC(C5)N6)nc(OCC56CCCN5CCC6)nc4c3F)c12 [Compound 54],2.86 h,8.1 µL/min/mg
